In PMC10136296, “Biological Screening and Crystallographic Studies of Hydroxy γ-Lactone Derivatives to Investigate PPARγ Phosphorylation Inhibition” (Biomolecules, 2023):

What was measured:
PPARγ-LBD = molecular target: T1, PPARγ-LBD (Homo sapiens, UniProt P37231); experiment: SPR full kinetic analysis on immobilized PPARγ-LBD; format: binding; conditions: for Kd: SPR full kinetic analysis, KD = Koff/Kon; for koff / kon: SPR, 25 °C, 5 μM to 312 nM, 1:1 model
T1 construct: PPARγ-LBD (NP_001120802; aa 207−474) was expressed as an N-terminal His-tagged protein; His-tag (N, cleaved yes); made in house; host or cells: E. coli BL21(DE3), pET-28a(+)
T1 sequence (P37231 207-474 isoform P37231-2 limits assumed): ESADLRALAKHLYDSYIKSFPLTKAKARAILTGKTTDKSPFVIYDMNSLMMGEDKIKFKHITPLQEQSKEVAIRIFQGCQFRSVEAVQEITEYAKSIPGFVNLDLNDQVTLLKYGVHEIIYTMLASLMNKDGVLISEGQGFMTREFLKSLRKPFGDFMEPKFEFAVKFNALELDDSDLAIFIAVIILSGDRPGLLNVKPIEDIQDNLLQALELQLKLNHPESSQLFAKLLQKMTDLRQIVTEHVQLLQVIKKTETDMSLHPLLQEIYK
Method: SPR experiments were performed at 25 °C using a Pioneer AE optical biosensor (Sartorius, Varedo, Italy) equipped with a PCH sensor chip (linear polycarboxylate hydrogel layer) and equilibrated with running buffer 10 mM Hepes, pH 7.4, 150 mM NaCl, 0.005% Tween-20, 1% DMSO. The PCH sensor chip was installed and conditioned in accordance with the manufacturer’s instructions. PPARγ-LBD was immobilized on the surface using amine coupling chemistry. Briefly, flow cells were activated for 5 min by injecting 125 μL of 1:1 ratio of 100 mM N-hydroxysuccinimide (NHS)/400 mM N-ethyl-N’-(3-(dimethylamino)propyl)carbodiimide (EDC). The protein solution (150 μg mL^−1 in 10 mM Na Acetate, pH 4.5) was then injected at 10 μL min^−1, followed by a 70 μL injection of 1 M ethanolamine (pH 8.0) to block any remaining activated groups on the surface. Approximately 11,770 and 10,800 RUs of protein were immobilized on Channel 1 and Channel 3 of the sensor chip, respectively, whereas Channel 2 was used as a reference for non-specific binding. […] The analytes were dialyzed in the running buffer (1% final DMSO concentration) and primary screened using OneStep® injection technology, which allows the compounds to diffuse into a moving stream of buffer to generate a concentration gradient (from 0 up to 10 μM) during a single injection at a flow rate of 50 μL min^−1 [40]. For each analyte injection, a long dissociation (600 s) was allowed, and regeneration of the sensing surface was not used. Next, the full kinetic analysis of the selected compounds was performed at different serial concentrations (from 5 μM to 312 nM) for 120 s at a constant flow rate of 50 μL min^−1. For each analyte injection, a dissociation of 180 s was allowed, followed by a short mild regeneration step with 1 M NaCl. All sensorgrams were processed using double referencing. First, responses from the reference surface (Channel 2) were subtracted from the binding responses collected over the reaction surfaces to correct for bulk refractive index changes between the flow buffer and analyte sample. Second, the response from the closest blank injection (zero analyte concentration) was subtracted to compensate for drift and small differences between the activated channel and the reference flow cell Channel 2. As an internal control for the gradient dispersion process, an injection of 3% sucrose dissolved in the assay buffer was performed for all the injections to ensure proper gradient formation and to calibrate for buffer viscosity. To obtain kinetic rate constants and affinity constants, the corrected response data were fitted in QDAT software provided with the instrument (BioLogic Software, Canberra, Australia). A kinetic analysis of the ligand/analyte interaction was obtained by fitting the response data to a reversible 1:1 bimolecular interaction model. The equilibrium dissociation constant (KD) was determined by the ratio Koff/Kon. This experiment was performed in duplicate.
The OneStep® injection technology was used for the screening of our compound collection. This method has been successfully employed in our previous work to test a series of natural products, extracted from medicinal plants. Its efficiency and reliability as a screening technique were confirmed by the rapid identification of promising compounds. This approach is based on the well-established concept of Taylor dispersion injection, which allows the compound to diffuse into a moving stream of buffer, producing a gradient throughout the injections. In this way, a wide range of analyte concentrations can be readily tested. In this assay, all the ligands from the DMSO stock solutions were dialyzed into the running buffer at 10 μM (1% final DMSO concentration) and gradient-injected for 120 s over the sensor chip surface. […]

[1] = molecular target: T2, human PPARγ subtype (hPPARγ), Gal4-PPARγ-LBD (Homo sapiens, UniProt P37231); experiment: GAL4-PPAR transactivation assay, agonist mode; format: cell-based; conditions: HepG2, up to 100 µM; rosiglitazone maximum = 100%
T2 construct: expressed in transfected cells; host or cells: HepG2
T2 sequence (P37231 238-503 limits assumed): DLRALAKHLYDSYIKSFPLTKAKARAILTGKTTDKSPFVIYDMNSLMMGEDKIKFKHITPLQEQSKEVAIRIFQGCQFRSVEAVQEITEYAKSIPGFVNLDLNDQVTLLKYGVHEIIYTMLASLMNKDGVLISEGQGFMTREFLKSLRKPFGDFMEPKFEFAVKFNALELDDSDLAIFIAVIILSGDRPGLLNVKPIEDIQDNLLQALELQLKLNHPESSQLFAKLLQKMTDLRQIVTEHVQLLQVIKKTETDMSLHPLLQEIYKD
Source text: (§1) Reference compounds, the cell culture medium, and the reagents were purchased from Sigma-Aldrich (Merck KGaA). The expression vectors bearing the chimeric receptor containing the yeast Gal4-DNA binding domain fused to the human PPARγ-LBD, and the reporter plasmid for this Gal4 chimeric receptor (pGal5TKpGL3), comprising five repeats of the Gal4 response elements upstream of a minimal thymidine kinase promoter adjacent to the coding sequence for luciferase, were described in a previous study. A culture of the human hepatoblastoma cell line HepG2 (Interlab Cell Line Collection, Genoa, Italy) was conducted in minimum essential medium (MEM) containing 10% heat-inactivated fetal bovine serum, 100 U of penicillin G mL^−1, and 100 μg mL^−1 of streptomycin sulfate at 37 °C in a humidified atmosphere of 5% CO2. For transactivation assays, cells were seeded in a 24-well plate at a concentration of 10^5 cells per well and were transfected after 24 h by CAPHOS, a calcium phosphate method, according to the manufacturer’s guidelines. Cell transfection was performed using expression plasmids encoding the fusion protein Gal4-PPARγ-LBD (30 ng), pGal5TKpGL3 (100 ng), and pCMVβgal (250 ng). […] Cell extracts were subsequently analyzed for luciferase activity via luminometry (VICTOR^3 V multilabel plate reader; PerkinElmer, Waltham, MA, USA). ortho-Nitrophenyl-β-D-galactopyranoside was used to measure β-galactosidase activity, following a previously described method. […]
(§2) Furthermore, compounds 1–3 were evaluated in vitro for their agonist activity towards the human PPARγ subtype (hPPARγ) by employing the GAL4-PPAR transactivation assay. […] We evaluated the efficacy of 1–3 on PPARγ at increasing concentrations up to 100 μM. […] The compounds were also analyzed in antagonist mode by conducting a competitive binding assay, in which PPARγ activity was measured at a fixed concentration of the reference agonist rosiglitazone (1 µM) in cells treated with increasing concentrations of 1–3. […]

[2] = test system: PPARγ Ser245 phosphorylation by CDK5/p35; experiment: In vitro kinase assay: CDK5-mediated phosphorylation of PPARγ-LBD (Pro-Q Diamond stain); format: biochemical; conditions: 10 µM ligand, 30 min at 30 °C
Method: The assay was performed on PPARγ-LBD, in the apo-form and in the complex with ligands 1–3. For the kinase assay, stock solutions of ligands were prepared by diluting with 100% DMSO to a concentration of 500 μM. The stock solutions were further diluted with 50 mM Tris-HCl, pH 7.5, up to the final concentration of 10 μM and pre-equilibrated overnight at 4 °C with the protein.
The kinase assay was carried out for 30 min at 30 °C in 50 μL of the assay buffer containing 50 mM Tris-HCl, pH 7.5, 800 ng of PPARγ-LBD, 10 μM ligand, 1% DMSO, 2.5 mM MgCl2, 50 μM DTT, 500 μM ATP, 40 ng of CDK5/p35 (Sigma-Aldrich code no. SRP5011; Merck KGaA). The experiment was performed in triplicate.
Pro-Q™ Diamond phosphoprotein gel stain (ThermoFisher, Waltham, MA, USA) provides a convenient method for selectively staining phosphoproteins in acrylamide gels, without the need for blotting or the use of phosphoprotein-specific antibodies. After performing electrophoresis, the gel was stained with Pro-Q™ Diamond and analyzed using a Chemidoc Imaging System (Bio-Rad). A further step of gel staining with SYPRO™ Ruby total-protein gel stain (ThermoFisher) was performed. Determining the ratio of the signal intensities of Pro-Q™ Diamond dye to SYPRO™ Ruby dye for each band provides a measure of the phosphorylation level normalized to the total amount of protein. More detailed information on the protocol used in this experiment can be obtained on the ThermoFisher website.
Finally, to assess the ability of 1–3 to inhibit the CDK5-mediated phosphorylation of PPARγ in vitro, a kinase assay was set up and optimized to measure the inhibition rate, as described in the experimental section. The phosphoproteins were detected and quantified by using the Pro-Q™ Diamond phosphoprotein gel stain method.

[3] = molecular target: T2, human PPARγ subtype (hPPARγ), Gal4-PPARγ-LBD; experiment: GAL4-PPAR transactivation assay, antagonist mode (competition with rosiglitazone); format: cell-based; conditions: HepG2, antagonist mode vs rosiglitazone 1 µM; mean ± SEM; uncertain above 10 µM because of cytotoxicity
Source text: as §1, §2

CDK5/p35 = molecular target: T3, CDK5/p35 (Homo sapiens, UniProt Q00535); experiment: CDK5 inhibition test with histone H2A/H2B as substrate; format: biochemical; conditions: 5 µM ligand, H2a/H2b as phosphorylation target
T3 construct: purchased Sigma-Aldrich (Merck KGaA) SRP5011
Method: The degree of CDK5 inhibition in the presence of compounds 1, 2, and 3 was evaluated with the same protocol described above for the in vitro kinase assay. In detail, the test was carried out for 30 min at 30 °C in 50 μL of the assay buffer containing 50 mM Tris-HCl, pH 7.5, 800 ng H2A/H2B, 5 μM ligand (for the calculation of the ligand concentration, the excess amount of compounds 1, 2, and 3 possibly not bound to PPARγ was overestimated), 1% DMSO, 2.5 mM MgCl2, 50 μM DTT, 500 μM ATP, 40 ng of CDK5/p35 (Sigma-Aldrich code no. SRP5011; Merck KGaA). The Pro-Q™ Diamond Phosphoprotein Gel Stain method and a Chemidoc Imaging System (Bio-Rad) were used for measuring the phosphorylation level. The experiment was performed in triplicate and the statistical significance was estimated as above.
Furthermore, these molecules were also screened as potential inhibitors of CDK5 itself, considering their structural similarity to BLI (Figure 2), which was reported in the literature as both a PPARγ partial agonist and a CDK5 inhibitor [10]. A kinase activity test was performed in the presence of compounds 1, 2, and 3, using histone H2a/H2b as a phosphorylation target.

HepG2 = experiment: Cytotoxicity seen by microscopy in the transactivation assay; format: cell-based, human; conditions: HepG2, at 25 and 100 µM, visually examined, data not shown
Method: Furthermore, compounds 1–3 were evaluated in vitro for their agonist activity towards the human PPARγ subtype (hPPARγ) by employing the GAL4-PPAR transactivation assay. The results were compared to the corresponding data for rosiglitazone, used as a reference in the test. The maximum fold induction obtained with the reference agonist was defined as 100%. We evaluated the efficacy of 1–3 on PPARγ at increasing concentrations up to 100 μM. […] The compounds were also analyzed in antagonist mode by conducting a competitive binding assay, in which PPARγ activity was measured at a fixed concentration of the reference agonist rosiglitazone (1 µM) in cells treated with increasing concentrations of 1–3. The inhibition curves, from which the IC50 values were extrapolated as mean ± SEM of three duplicate experiments, are reported in Figure 4A. […] Consequently, the IC50 values could not be estimated with a certainty above 10 µM, which was the threshold at which the cytotoxicity was null or negligible. From the inhibition curves (Figure 4A), we hypothesized the absence of antagonism: the activity remained unchanged up to 10 µM and then decreased at 25 µM and 100 µM. However, at these concentrations, the signal reduction could not be unequivocally attributed to PPARγ antagonism, due to the cytotoxic effects of the compounds at higher doses.

T3 sequence (Q00535 whole entry): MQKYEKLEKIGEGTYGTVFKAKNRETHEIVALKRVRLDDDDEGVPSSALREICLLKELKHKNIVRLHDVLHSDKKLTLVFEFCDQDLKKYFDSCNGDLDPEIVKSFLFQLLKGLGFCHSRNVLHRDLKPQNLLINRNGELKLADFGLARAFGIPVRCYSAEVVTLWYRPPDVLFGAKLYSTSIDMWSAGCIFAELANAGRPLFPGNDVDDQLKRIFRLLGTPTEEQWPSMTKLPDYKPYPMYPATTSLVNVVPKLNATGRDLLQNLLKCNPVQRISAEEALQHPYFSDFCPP
T3 sequence (Q15078 whole entry partner): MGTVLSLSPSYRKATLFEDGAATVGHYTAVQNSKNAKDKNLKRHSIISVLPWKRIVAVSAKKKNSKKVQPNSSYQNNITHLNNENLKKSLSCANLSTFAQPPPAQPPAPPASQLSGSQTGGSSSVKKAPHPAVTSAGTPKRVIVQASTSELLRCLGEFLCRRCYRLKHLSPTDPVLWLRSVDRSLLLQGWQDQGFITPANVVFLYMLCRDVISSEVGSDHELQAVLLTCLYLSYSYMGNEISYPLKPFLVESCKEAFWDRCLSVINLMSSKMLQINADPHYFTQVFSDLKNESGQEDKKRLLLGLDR

SMILES | Kd (PPARγ-LBD) | koff (PPARγ-LBD) | kon (PPARγ-LBD) | melting point | agonist activity in the PPARγ transactivation assay [1] | inhibition of Ser245 phosphorylation [2] | IC50 [3] | CDK5 inhibition (CDK5/p35) | cytotoxicity (HepG2)
O=C1OC(c2cccc(O)c2)C(c2ccc(Br)cc2)=C1O (stereo not drawn) [Compound 1, 4-(4-Bromophenyl)-3-hydroxy-5-(3-hydroxyphenyl)furan-2(5H)-one] | 3.75 ± 0.06 µM | 0.0679 ± 0.0004 s⁻¹ | 18100 ± 3e+06 M⁻¹ s⁻¹ | 194 to 195 °C (dec.) | PPARγ non-agonists | ~40% | 39.9 ± 1.2 µM | very low inhibition effect | –
O=C1OC(c2cccc(O)c2)C(C(=O)c2ccccc2)=C1O (stereo not drawn) [Compound 2, 4-Benzoyl-3-hydroxy-5-(3-hydroxyphenyl)furan-2(5H)-one] | 1.93 ± 0.02 µM | 0.02241 ± 9e-05 s⁻¹ | 11700 ± 1e+06 M⁻¹ s⁻¹ | – | PPARγ non-agonists | ~40% | 35.1 ± 2.8 µM | more significant inhibitory activity | –
O=C1OC(c2ccc(OCc3cccc4ccccc34)cc2)C(c2ccccc2)=C1O (stereo not drawn) [Compound 3, 3-Hydroxy-5-(4-(naphthalen-1-ylmethoxy)phenyl)-4-phenylfuran-2(5H)-one] | 1.67 ± 0.02 µM | 0.0362 ± 0.0001 s⁻¹ | 21700 ± 2e+06 M⁻¹ s⁻¹ | 204 °C | PPARγ non-agonists | ~40% | 16.2 ± 2.5 µM | more significant inhibitory activity | a certain cytotoxicity
